One experiment has as its system cellular proliferation. The note with it: literature; cited from earlier work.
In experiment [1] the test system is PANC-1 human pancreatic adenocarcinoma cells. The experiment can be described thus: Immunofluorescent detection of effects on the microtubule matrix (anti-alpha-tubulin). It counts as cell-based. The note with it: PANC-1 cells, 100 nM, overnight. As to the method:
Dictyostatin-1 was evaluated as to its effects on the microtubule network of cells using anti-alpha-tubulin monoclonal antibodies.
PANC-1 human pancreatic adenocarcinoma cells were maintained in tissue culture media (TCM=Roswell Park Memorial Institute (RPMI) medium 1640 supplemented with 100 U/ml penicillin, […] streptomycin, 60 mg/ml 1-glutamine, 18 mM HEPES, 0.05 mg/ml gentamicin and 10% fetal bovine serum) and cultured in plastic culture flasks at 37° C. in humidified air containing 5% CO2. Stock cultures of PANC-1 cells were subcultured 1:10 every 3 to 4 days. On day 1, 1.25×10^5 PANC-1 cells were sub-cultured in TCM overnight at 37° C. in 5% CO2 on 22 mm^2 coverslips in 6-well microtiter plates. On day 2, TCM was removed and replaced with various concentrations of dictyostatin-1, or Taxol, in TCM or TCM without drug (control) and incubated overnight at 37° C. in 5% CO2. On day 3, TCM was removed and cells attached to coverslips were fixed with a 3.7% formaldehyde solution in Dulbecco's PBS for 10 minutes at room temperature. Cells were permeabilized with a 2% Triton X-100 solution, 2 ml per well, for 5 minutes at room temperature and washed twice in Dulbecco's PBS prior to staining. […]

Experiment [2] relates to A549 human adenocarcinoma. The experiment can be described thus: Cytotoxicity, MTT assay, A549. Format: cell-based. Conditions: read-out: IC50 (Std dev) A549. The method, then:
(§1) The cytotoxicity of dictyostatin-1 for various Taxol resistant and sensitive cell lines was compared to that of Taxol. The cell lines used were A549 human adenocarcinoma, MCF-7 human breast carcinoma, MCF-7ADR multi-drug resistant (Taxol resistant) human breast carcinoma, MES-SA human uterine carcinoma and MES-SA/DX5 Taxol resistant uterine carcinoma. All cell lines were maintained in Roswell Park Memorial Institute (RPMI) medium 1640 supplemented with 100 U/ml penicillin, […] streptomycin, 60 mg/ml 1-glutamine, 18 mM HEPES, 0.05 mg/ml gentamicin (Life Technologies, Gaithersburg, Md.) and 10% fetal bovine serum and cultured in plastic tissue culture flasks at 37° C. in humidified air containing 5% CO2. […] To spectrophotometrically quantitate formation of reduced formazan, plates are centrifuged (500×g, 10 minutes), culture fluids removed by aspiration, and 200 μl of acidified isopropanol (2 ml concentrated HC1/liter isopropanol) added per well. The absorbance of the resulting solutions is measured in a plate reader (Tecan Spectra SLT; TECAN U.S., Research Triangle Park, N.C.) at 570 nm and a 650 nm reference filter. […] The two standard drug controls (indicated above) are included in each assay as a check to monitor the drug sensitivity of each of the cell lines and IC50 values are determined for each drug-cell combination.

In experiment [3] the test system is MCF-7 human breast carcinoma. The experiment is described as follows: Cytotoxicity, MTT assay, MCF-7. Format: cell-based. Conditions: read-out: IC50 (Std dev) MCF-7. The method, then:
as §1

Experiment [4] relates to MCF-7ADR multi-drug resistant (Taxol resistant) human breast carcinoma. The experiment can be described thus: Cytotoxicity, MTT assay, MCF-7/ADR. Conditions: for IC50: Homo sapiens, NCI/ADR-RES, read-out: IC50 (Std dev) MCF-7/ADR; for Resistance, MCF-7/ADR relative to MCF-7: ratio of IC50 values, resistant vs sensitive line; for resistance of MCF-7ADR cells: resistant vs Taxol-sensitive counterpart. Format: cell-based. As to the method:
(§2) The cytotoxicity of dictyostatin-1 for various Taxol resistant and sensitive cell lines was compared to that of Taxol. The cell lines used were A549 human adenocarcinoma, MCF-7 human breast carcinoma, MCF-7ADR multi-drug resistant (Taxol resistant) human breast carcinoma, MES-SA human uterine carcinoma and MES-SA/DX5 Taxol resistant uterine carcinoma. All cell lines were maintained in Roswell Park Memorial Institute (RPMI) medium 1640 supplemented with 100 U/ml penicillin, […] streptomycin, 60 mg/ml 1-glutamine, 18 mM HEPES, 0.05 mg/ml gentamicin (Life Technologies, Gaithersburg, Md.) and 10% fetal bovine serum and cultured in plastic tissue culture flasks at 37° C. in humidified air containing 5% CO2. Stock cultures of cells were subcultured 1:10 every 3 to 4 days. To assess the antiproliferative effects of agents against the cells, 200 μl cultures (96-well tissue culture plates, Nunc, Denmark) were established at 1×10^5 cells/mL in TCM or TCM containing the test agent at 0.03-5.0 μg/ml. After 72 -h exposures, the effects of dictyostatin-1 and Taxol on cell proliferation were quantitated and IC50 values determined as follows: 75 μl of warm growth media containing 5 mg/ml 3-[4,5-dimethylthiazol-2-yl]-2,5-diphenyltetrazolium bromide (MTT) (M. C. Alley et al. (1988) Cancer Res. 48:589) was added to each well, cultures returned to the incubator, and left undisturbed for 3 hours. To spectrophotometrically quantitate formation of reduced formazan, plates are centrifuged (500×g, 10 minutes), culture fluids removed by aspiration, and 200 μl of acidified isopropanol (2 ml concentrated HC1/liter isopropanol) added per well. The absorbance of the resulting solutions is measured in a plate reader (Tecan Spectra SLT; TECAN U.S., Research Triangle Park, N.C.) at 570 nm and a 650 nm reference filter. The absorbance of tests wells is divided by the absorbance of drug-free wells, and the concentration of agent that results in 50% of the absorbance of untreated cultures (IC50) is determined by linear regression of logit-transformed data (D. J. Finney, Statistical Method in Biological Assay, Third Ed., pp.316-348, Charles Griffin Co., London, 1978). A linear relationship between tumor cell number and formazan production has been routinely observed over the range of cell densities observed in these experiments. The two standard drug controls (indicated above) are included in each assay as a check to monitor the drug sensitivity of each of the cell lines and IC50 values are determined for each drug-cell combination.

Experiment [5] relates to MES-SA/DX5 Taxol resistant uterine carcinoma. The experiment is described as follows: Cytotoxicity, MTT assay, MES-SA/DX5. It counts as cell-based, human. The note with it: for IC50: Homo sapiens, read-out: IC50 (Std dev) MES-SA/DX5; for Resistance, MES-SA/DX5 relative to MES-SA: ratio of IC50 values, resistant vs sensitive line; for resistance of MES-SA/DX5 cells: resistant vs Taxol-sensitive counterpart. As to the method: as §2

In experiment [6] the test system is PANC-1 human pancreatic adenoma cells. The experiment is described as follows: Cell cycle progression of PANC-1 cells (propidium iodide flow cytometry). It counts as cell-based. Conditions: 100 nM, 24 hours; for percentage of cells in S phase: untreated control 5.8%; for percentage of cells in G2/M phase: untreated control 34.4%; for percentage of cells comprising the G1 population: untreated control 59.8%. The method, then:
Cell cycle studies were initiated in order to pinpoint a specific phase within the cell cycle in which dictyostatin-1 was exerting its antiproliferative effect. PANC-1 human pancreatic adenoma cells were used as cell cycle targets to compare the effects on perturbation of the cell cycle of dictyostatin-1 to the known mitotic spindle inhibitor […]. Cell cycle analyses were performed as follows: PANC-1 cells were incubated at 37° C. in 5% CO2 in air in the presence or absence of varying concentrations of dictyostatin-1 or Taxol for 24 hours.
Cells were harvested, fixed in ethanol and stained with 0.02 mg/ml of propidium iodide (P.I.) together with 0.1 mg/ml of RNAse A. This procedure permeabilizes cells and allows entry of P.I. to stain DNA (propidium iodide also stains double stranded RNA, so RNAse is included in the preparation to exclude this possibility). Stained preparations were analyzed on a Coulter EPICS ELITE with 488 nm excitation. Fluorescence measurements and resulting DNA histograms were collected from at least 3,000 P.I. stained cells at an emission wavelength of 690 nm. Raw histogram data was further analyzed using a cell cycle analysis program (Multicycle, Phoenix Flow Systems).

Experiment [7] relates to MES-SA human uterine carcinoma. The experiment can be described thus: Cytotoxicity, MTT assay, MES-SA. It counts as cell-based. The note with it: read-out: IC50 (Std dev) MES-SA. The method, then: as §1
Experiment [8] concerns purified bovine brain tubulin. The experiment is described as follows: Polymerization of purified tubulin (optical density at 350 nm). Format: biochemical. The note with it: 10 μM. As to the method:
Polymerization of purified bovine brain tubulin (Cytoskeleton Inc., Denver, Co.) was followed by changes in the optical density of tubulin solutions at 350 nm in a Hitachi U-3010 spectrophotometer equipped with a SPR-10 electronic thermostatted cell holder. Stock solutions of tubulin were diluted on ice in G-PEM buffer (1 mM GTP, 80 mM PIPES (piperazine-N,N′-bis(2-ethanesulfonic acid]sesquisodium salt), 1 mM EGTA (ethylene glycol-bis(b-amine ethyl ether) N,N,N,N′-tetra acetic acid), 0.5 mM magnesium chloride; pH 6.8) to a final concentration of 1 mg/ml. The instrument was zeroed on this solution at 4° C. Dictyostatin-1, was then added to the tubulin to a final concentration of 10 μM and quickly mixed. The polymerization was monitored by observing light scattering changes in optical density at 350 nm using the spectrophotometer. The temperature was varied for a time period of […] beginning at 4° C. for 1 minute, then linearly ramping to 35° C. over 30 minutes, with a hold of one minute at 35° C., then linearly decreasing to 4° C. over 15 minutes, with this temperature being maintained for an additional 15 minutes. Absorbance was measured and recorded over the entire time period.

Molecules are shown by their SMILES. Read-outs that look alike come from different tables or passages of the source.

For the molecule `C=C1C[C@H](C)C[C@@H]2CC=C[C@@H](C/C=C\C(=O)O[C@H]([C@@H](O)/C=C/[C@@H]3CC(C)=CCO3)C[C@@H]3O[C@H]3[C@@H](O)C1)O2` [Laulimalide], the “IC50 values, inhibition of cellular proliferation” value in the experiment with cellular proliferation is given as “low nanomolar range”.
For `CC(=O)O[C@H]1C(=O)[C@@]2(C)[C@H]([C@H](OC(=O)c3ccccc3)[C@]3(O)C[C@H](OC(=O)[C@H](O)[C@@H](NC(=O)c4ccccc4)c4ccccc4)C(C)=C1C3(C)C)[C@]1(OC(C)=O)CO[C@@H]1C[C@@H]2O` [Taxol], the “effect on microtubule network (bundling)” value in experiment [1] was “characteristic formation of microtubular “bundles” but also a substantial amount of “non-bundled” microtubular material still remained in the cytoplasm”. For the same molecule, the IC50 in experiment [2] (A549, 72-h exposure, MTT) was 5.13 nM. The IC50 in experiment [3] (MCF7, 72-h exposure, MTT) was found to be 2.5 nM. In experiment [4] (72-h exposure, MTT), the IC50 turned out to be 3330 nM. Moreover, in experiment [4], the “Resistance, MCF-7/ADR relative to MCF-7” value was determined as 1332× and the “resistance of MCF-7ADR cells” value is on record as 1332 fold. In addition, the IC50 in experiment [5] (MES-SA/Dx5, 72-h exposure, MTT) stood at 1650 nM. In addition, in experiment [5], the “Resistance, MES-SA/DX5 relative to MES-SA” value is given as 501× and the “resistance of MES-SA/DX5 cells” value is 501 fold. Further, in [6], the “percentage of cells in S phase” value is listed as 27%, the “percentage of cells in G2/M phase” value is listed as 47% and the “percentage of cells comprising the G1 population” value is 26%. Further, the IC50 in experiment [7] (72-h exposure, MTT) turned out to be 3.3 nM.
As to `C=C/C=C\C(C)C1OC(=O)/C=C\C=C\C(C)C(O)CC(O)/C=C\C(C)C(O)C(C)CC(C)CCC(O)C1C` (stereo not drawn) [Dictyostatin-1], the “effect on microtubule network (bundling)” value in experiment [1] is recorded as “extensive microtubule bundling resulting in almost complete depletion of non-bundled microtubular material in the cytoplasm”. Besides, the IC50 came to 0.95 nM in experiment [2] (A549, 72 h); 1.5 nM in [3] (MCF7, 72 h); 20 nM in [4] (72 h); 11 nM in experiment [5] (MES-SA/Dx5, 72 h); 4.1 nM in experiment [7] (72 h). Moreover, the “Resistance, MCF-7/ADR relative to MCF-7” value in experiment [4] was found to be 13×. Besides, the “resistance of MCF-7ADR cells” value in experiment [4] is recorded as 13 fold. Further, the “Resistance, MES-SA/DX5 relative to MES-SA” value in experiment [5] stood at 3×. The “resistance of MES-SA/DX5 cells” value in experiment [5] worked out at 3 fold. Besides, the “stability of polymerized tubulin on cooling” value in experiment [8] (temperature decreased from 35° C. to 4° C.) is given as “did not substantially depolymerize upon reduction of the temperature”. In addition, in experiment [8] (tubulin 1 mg/ml, temperature ramp 4° C. to 35° C.), the “induction of tubulin polymerization” value was “induced tubulin polymerization with a maximum polymerization level reached at 35 °C”. Besides, the “percentage of cells in S phase” value in [6] stood at 30%. In addition, the “percentage of cells in G2/M phase” value in experiment [6] worked out at 35%. In addition, the “percentage of cells comprising the G1 population” value in [6] is 36%.
On to `C=C1CC(C)C[C@@H]2CC=C[C@@H](C/C=C\C(=O)O[C@@H]3C[C@H](O[C@@H]3/C=C/[C@H]3CC(C)=CCO3)[C@H](O)C(O)C1)O2` (stereo partly drawn) [isolaulimalide], for which the “IC50 values, inhibition of cellular proliferation” value in the experiment on cellular proliferation is “low micromolar range”.

The values above are taken from patent US6677370B2, “Compositions and uses of dictyostatin compounds” (Harbor Branch Oceanographic Institution, Inc., priority 2000, dated 2004).
